Converted amounts (≈) assume the structure as drawn. Like-named read-outs stand apart in the source and are kept apart here.
Test system: A. baumannii AB5075
Experiment: Resistance studies (agar plates and 21-day serial passaging)
Type: cell-based, Acinetobacter baumannii
Settings: for MIC: Acinetobacter baumannii
Experimental: To test for spontaneous development of resistance to PGG, A. baumannii AB5075 was inoculated on agar plates containing PGG at 0.5×MIC, 1×MIC, and 2×MIC (128, 256, and 512 μg/mL, respectively), and a control plate containing no PGG. […] Next, evolution of resistance was tested by serial passaging A. baumannii AB5075 for 21 days in the presence of a PGG gradient, using culture from the 0.5×MIC treatment for each subsequent passage. Serial passaging with a tetracycline gradient served as a control.

## CN(C)[C@@H]1C(O)=C(C(N)=O)C(=O)[C@@]2(O)C(O)=C3C(=O)c4c(O)cccc4[C@@](C)(O)[C@H]3C[C@@H]12 [tetracycline, reference compound]
A. baumannii, after 10 passages
  fold increase in MIC: 16 fold
AB5075, read-out: Base MIC
  MIC: 4 µg/mL (≈ 9 µM)
AB5075, read-out: MIC after serial passaging
  MIC: 64 µg/mL (≈ 144 µM)
